{
  "source": "patent US6689936B1",
  "about": "“Method for evaluating a compound for its effect on skin” (The General Hospital Corp., priority 1997, dated 2004)",
  "key": {"[1]": {"system": "human VEGF promoter driven GFP reporter", "assay": "Induction of epidermal GFP by topical TPA in VEGF-GFP transgenic mouse skin (fluorescence microscopy of skin biopsy sections)", "assay_type": "in vivo", "details": "single dose of 5 μg TPA in acetone, topical on back skin, biopsy after 12 hours; acetone alone showed only basal levels", "procedure": "Tissue preparation for GFP detection and epimicroscopic observation solutions washed out or diffused GFP-derived fluorescence from the site of GFP expression. Ultimately, a freshly dissected, unfixed tissue block, was directly cut into 12 μm thick frozen sections using a cryostat. Epifluorescent microscopic observation was performed immediately after sectioning, without mounting medium or extended slide storage, using FITC/TRITC double excitation and an emission filter Chroma, *VT) to distinguish the GFP-derived fluorescent signal from tissue autofluorescence.\nFor induction of VEGF mRNA by TPA, a single dose of 5 μg TPA in acetone was topically applied to back skin of transgenic mice and skin biopsy samples were collected after 12 hours.\nInduction of epidermal GFP by phorbolester application was also examined. […] This signal seemed to localize to the basoplateral surface of the epithelium rather than in either the keratinocyt cytosol or nucleus."}, "VEGF": {"system": "VEGF", "details": "topical application of phorbolesters; cited from earlier work"}, "[2]": {"system": "human VEGF promoter driven GFP reporter", "assay": "Direct confocal detection of GFP induction in intact skin of living hairless VEGF-GFP transgenic mice", "assay_type": "in vivo", "details": "TPA applied to back skin of anaesthetized hairless VEGF-GFP mouse, after 12hrs, compared with acetone on the same individual", "procedure": "To examine whole intact skin on living transgenic mouse with confocal microscope, hairless VEGF-GFP transgenic mice were anaesthetized with avertin by intraperitoneal injection. They were placed directly on the petri dish with dorsal position. TPA or acetone treatment was performed on the back skin same as described above marking treated area with an ink to ease the orientation of the skin. Sections or intact skin of the mice were analyzed using Leica DM IRBE inverted microscope and Leica TCS NT4D confocal microscope system with band pass filter 530/30 nm, detecting emission at wavelengths between 515-545 nm.\nTo test whether the induction of GFP is directly detected in the skin of a living VEGF-GFP transgenic mouse, acetone or TPA applied skin of the transgenic hairless mouse (same individual) was directly examined by confocal imaging under anaesthetized condition. […] X-Z confocal imaging confirmed that this signal was within the basal layer of the epidermis."}},
  "data": [
    {"smiles": "CCCCCCCCCCCCCC(=O)O[C@@H]1[C@@H](C)[C@@]2(O)[C@@H](C=C(CO)C[C@]3(O)C(=O)C(C)=C[C@@H]23)[C@H]2C(C)(C)[C@]12OC(C)=O", "note": "[TPA]", "values": [
      {"measurement": "GFP fluorescent signal in epidermis of transgenic skin", "setting": "[1]", "value": "Accumulation of fluorescent signal was observed"},
      {"measurement": "expression of VEGF in epidermal keratinocytes", "setting": "VEGF", "value": "up-regulated"},
      {"measurement": "GFP fluorescence positive area in living epidermis (confocal imaging)", "setting": "[2]", "value": "increase of fluorescence positive area"}
    ]}
  ]
}
